Laboratory results published in patent US12692261B2, “Substituted heterocyclic compounds and therapeutic uses thereof” (Bayer Aktiengesellschaft, priority 2020, dated 2026).
Where two headings read alike, the source gives them in different places.

Assays:
[1] = target: T1, wild-type Epidermal Growth Factor Receptor (EGFR) (Homo sapiens, UniProt P00533); experiment: WT-EGFR Kinase Assay (TR-FRET, 2 mM ATP); assay type: biochemical
T1 construct: a fragment of human EGFR (amino acids R669 to A1210); made in house; host or cells: Sf9 insect cells
T1 sequence (P00533 669-1210): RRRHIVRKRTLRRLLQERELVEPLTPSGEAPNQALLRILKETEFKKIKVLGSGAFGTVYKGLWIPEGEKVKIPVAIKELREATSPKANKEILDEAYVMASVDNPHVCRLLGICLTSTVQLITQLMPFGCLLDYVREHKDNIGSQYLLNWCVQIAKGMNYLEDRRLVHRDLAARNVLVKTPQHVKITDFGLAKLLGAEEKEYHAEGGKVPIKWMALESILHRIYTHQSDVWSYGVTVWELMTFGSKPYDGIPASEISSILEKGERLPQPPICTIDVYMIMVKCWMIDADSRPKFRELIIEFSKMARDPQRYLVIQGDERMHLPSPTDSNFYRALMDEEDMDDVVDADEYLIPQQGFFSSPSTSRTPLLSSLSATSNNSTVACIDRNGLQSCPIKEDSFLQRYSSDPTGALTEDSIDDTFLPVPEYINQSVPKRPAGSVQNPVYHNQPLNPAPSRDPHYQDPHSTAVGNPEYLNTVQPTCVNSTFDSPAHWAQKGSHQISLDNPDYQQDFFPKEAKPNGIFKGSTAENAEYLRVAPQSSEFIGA
Method in brief: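 GST-fused human EGFR fragment (R669-A1210) from Sf9 cells, typically 7.6 pg/μL, pre-incubated with compound 15 min at 22° C in Hepes pH 7.0 buffer with MgCl2, DTT and vanadate; biotinylated peptide substrate. After EDTA stop, phosphopeptide detected by TR-FRET (anti-phosphotyrosine Tb-cryptate/streptavidin-XL665), 665/620 nm emission ratio.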

full-length human CSNK1D = target: T2, full-length human CSNK1D (Homo sapiens, UniProt P48730); experiment: CSNK1D Assay (ADP-Glo, 1 μM ATP); assay type: biochemical; conditions: Table 3, read-out: CSNK1D IC50 [mol/l] (median)
T2 construct: N-terminal Glutathion-S-Transferase (GST) and full-length human CSNK1D; purchased Life Technologies PV3665; host or cells: baculovirus infected insect cells
T2 sequence (P48730 whole entry): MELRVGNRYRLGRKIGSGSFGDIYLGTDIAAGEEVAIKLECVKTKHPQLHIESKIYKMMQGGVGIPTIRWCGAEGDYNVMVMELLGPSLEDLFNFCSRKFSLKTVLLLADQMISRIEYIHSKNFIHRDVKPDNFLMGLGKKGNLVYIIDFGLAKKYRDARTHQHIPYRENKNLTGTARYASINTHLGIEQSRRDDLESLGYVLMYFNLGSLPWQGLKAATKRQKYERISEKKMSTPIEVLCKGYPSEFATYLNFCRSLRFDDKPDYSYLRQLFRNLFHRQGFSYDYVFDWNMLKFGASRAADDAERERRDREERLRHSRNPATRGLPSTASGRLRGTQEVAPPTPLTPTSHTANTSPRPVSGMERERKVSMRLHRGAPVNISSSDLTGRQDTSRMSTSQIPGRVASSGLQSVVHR
Method in brief: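 ADP-Glo luminescence reports ADP generated by GST-fused full-length human CSNK1D (insect-cell expressed, about 0.5 ng/μL) acting on a biotinylated peptide at 1 μM ATP. Test compounds were pre-bound to enzyme 15 min at 22° C in 50 mM HEPES pH 7.5.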

[2] = EGFR Wildtyp 2 mM ATP IC50 [mol/l] (median), Table 4
[3] = read-out: EGFR Wildtyp 2 mM ATP IC50 [mol/l] (median), Table 4

O=C(Nc1cc(-c2[nH]c3cccnc3c2-c2cccc(F)n2)ccn1)C(CC(F)F)c1ccc(F)cc1 (single isomer, unassigned; (-)) [Example 26, (−)-4,4-difluoro-2-(4-fluorophenyl)-N-{4-[3-(6-fluoropyridin-2-yl)-1H-pyrrolo[3,2-b]pyridin-2-yl]pyridin-2-yl}butanamide]
IC50 [1, 2]: > 20000 nM | IC50 (full-length human CSNK1D): 50.7 nM

O=C(Nc1cc(-c2[nH]c3c(CC4CC4)cc(F)nc3c2-c2ccccn2)ccn1)C(CC(F)F)c1ccc(F)cc1 (racemic) [Example 46, (2RS)—N-{4-[7-(cyclopropylmethyl)-5-fluoro-3-(pyridin-2-yl)-1H-pyrrolo[3,2-b]pyridin-2-yl]pyridin-2-yl}-4,4-difluoro-2-(4-fluorophenyl)butanamide]
IC50 [1, 2]: > 20000 nM | IC50 (full-length human CSNK1D): 19.2 nM

O=C(Nc1cc(-c2[nH]c3c(OCC(F)F)cc(F)nc3c2-c2ccccn2)ccn1)C(CC(F)F)c1ccc(F)cc1 (single isomer, unassigned) [Example 29, (2R or S)—N-{4-[7-(2,2-difluoroethoxy)-5-fluoro-3-(pyridin-2-yl)-1H-pyrrolo[3,2-b]pyridin-2-yl]pyridin-2-yl}-4,4-difluoro-2-(4-fluorophenyl)butanamide]
IC50 [1, 2]: > 20000 nM | IC50 (full-length human CSNK1D): 2.32 nM

O=C(Nc1cc(-c2[nH]c3c(OCC(F)(F)F)ncnc3c2-c2ccccn2)ccn1)C(CC(F)(F)F)c1ccc(F)cc1 (single isomer, unassigned) [Example 127, (2R or S)-4,4,4-trifluoro-2-(4-fluorophenyl)-N-{4-[7-(pyridin-2-yl)-4-(2,2,2-trifluoroethoxy)-5H-pyrrolo[3,2-d]pyrimidin-6-yl]pyridin-2-yl}butanamide]
IC50 [1, 3]: > 20000 nM | IC50 (full-length human CSNK1D): 88.1 nM

Cc1ccc2[nH]c(-c3ccnc(NC(=O)C(CC(F)F)c4ccc(F)cc4)c3)c(-c3ccccn3)c2n1 (single isomer, unassigned) [Example 5, 4,4-difluoro-2-(4-fluorophenyl)-N-{4-[5-methyl-3-(pyridin-2-yl)-1H-pyrrolo[3,2-b]pyridin-2-yl]pyridin-2-yl}butanamide]
IC50 [1, 2]: > 20000 nM | IC50 (full-length human CSNK1D): 7.13 nM

O=C(Nc1cc(-c2[nH]c3c(OCC4CC4)ncnc3c2-c2ccccn2)ccn1)C(CC(F)F)c1ccc(F)cc1 (single isomer, unassigned) [Example 129, (2R or S)—N-{4-[4-(cyclopropylmethoxy)-7-(pyridin-2-yl)-5H-pyrrolo[3,2-d]pyrimidin-6-yl]pyridin-2-yl}-4,4-difluoro-2-(4-fluorophenyl)butanamide]
IC50 [1, 2]: 9500 nM | IC50 (full-length human CSNK1D): 5.94 nM

O=C(Nc1cc(-c2[nH]c3ccc(F)nc3c2-c2ccc(F)cn2)ccn1)C(CC(F)F)c1ccc(F)cc1 (single isomer, unassigned; (+)) [Example 109, (+)-4,4-difluoro-N-{4-[5-fluoro-3-(5-fluoropyridin-2-yl)-1H-pyrrolo[3,2-b]pyridin-2-yl]pyridin-2-yl}-2-(4-fluorophenyl)butanamide]
IC50 [1, 2]: > 20000 nM | IC50 (full-length human CSNK1D): 3.41 nM

Cc1ccc2[nH]c(-c3ccnc(NC(=O)C(CC(F)F)c4ccc(F)cc4)c3)c(-c3ccccn3)c2n1 (single isomer, unassigned) [Example 6, 4,4-difluoro-2-(4-fluorophenyl)-N-{4-[5-methyl-3-(pyridin-2-yl)-1H-pyrrolo[3,2-b]pyridin-2-yl]pyridin-2-yl}butanamide]
IC50 [1, 3]: > 20000 nM | IC50 (full-length human CSNK1D): 89.7 nM
